Measurements as given in US9469665B2, “Compound having lysophosphatidylserine receptor function modulation activity” (THE UNIVERSITY OF TOKYO, priority 2013, dated 2016).

Tests used:
Type in all cases: cell-based
mouse P2Y10 = molecular target: T1, mouse P2Y10 (Mus musculus, UniProt Q8BFU7); assay: TGFα shedding assay, agonistic activity on P2Y10; set-up: key: an activity that is 100 folds that of control compound 1 as +++++; an activity that is 10 folds that of control compound 1 as ++++; the activity of the control compound 1 (LPS18:1) as +++; an activity that is 1/10 as ++; an activity that is 1/100 as +; an activity below that as −; settings: HEK293 cells transfected with mouse P2Y10 and AP labeled TGFα; activity relative to control compound 1 (LPS18:1) = +++
T1 construct: expressed in transfected cells; host or cells: HEK293
T1 sequence (Q8BFU7 whole entry): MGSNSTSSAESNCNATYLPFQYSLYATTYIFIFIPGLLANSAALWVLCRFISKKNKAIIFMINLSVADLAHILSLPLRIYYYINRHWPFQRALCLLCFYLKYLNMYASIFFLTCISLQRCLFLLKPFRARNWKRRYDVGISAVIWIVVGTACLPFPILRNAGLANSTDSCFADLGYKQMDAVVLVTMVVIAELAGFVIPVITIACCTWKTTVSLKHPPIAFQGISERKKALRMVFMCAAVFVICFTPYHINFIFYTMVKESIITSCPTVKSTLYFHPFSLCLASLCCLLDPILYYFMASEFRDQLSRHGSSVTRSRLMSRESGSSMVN
Method: (§1) [Test Example 1]Assay of Agonistic Activity by TGFα Shedding Assay
(§2) HEK293 cells were suspended in the Dulbecco's modified Eagle's medium (DMEM) containing 10% fetal bovine serum (FCS) to exist in an amount of 2.0×10^5 cells/mL, and they were seeded in 60 mm dishes at 4 mL per dish. Transfection of different expression vectors was performed using LipofectAMINE 2000 (Invitrogen) after 24 hours of culture under the presence of 5% CO2. For each 60 mm dish, 1 μg of AP labeled TGFα plasmid vectors were used, and 1 μg of pCAGGS plasmid vectors of mouse GPR34, P2Y10 or GPR174 were used. The plasmid vectors were prepared by methods disclosed in Patent Documents 2 and 5. Note that the AP labeled TGFα is a protein comprising a membrane-bound pro-TGFα whose N terminal end is fused with human placental alkaline phosphatase, and the plasmid vector of the AP labeled TGFα may be produced based on the teaching of Tokumaru et al., J Cell Biol 151, 209-220 (2000). After 24 hours of transfection, the cells were peeled off using trypsin/EDTA, and they were re-suspended in a culture medium to form an amount of 2.0×10^4 cells/well to be seeded to a 96-well plate. Hanks' Balanced Salt Solution (HBSS, containing 5 mM HEPES) was used for the re-suspended solution when stimulating with the compound. After it was left still for 30 min., subject compounds of various concentrations were added and the solutions were left still for another 1 hour under the presence of 5% CO2. The 96-well plate was subjected to centrifugation (190×g, 3 min.), then 80 μl of supernatant was transferred to a different 96-well plate. A reaction buffer (40 mM Tris-HCl (pH 9.5)) containing 10 mM p-nitrophenyl phosphate (p-NPP) was added in an amount of 80 μL to the supernatant and cells. The OD405 was measured with a micro plate reader (background), then after heating at 37° C. for an hour, OD405 was re-measured. The AP activity for each well was obtained by subtracting the background from the second absorbance and plugging the difference into the following formula.
(§3) In addition, the value obtained by subtracting the AP activity (%) of the non-stimulated group was used in the vertical axis to create a graph. The graphs of the test results for Example 3 (lysoPS sn-1-deoxy sn3 C3-ph-o-OBn-m-Oph) and Example 31 (lysoPS sn-1-OMe sn3 C3-ph-o-OBn-m-Oph) are shown in FIG. 1.
(§4) The obtained activity is shown by plotting the compound concentration and AP activity (%), then representing the activity of the control compound 1 (LPS18:1) as +++, an activity that is 10 folds that of control compound 1 as ++++, an activity that is 100 folds that of control compound 1 as +++++, an activity that is 1/10 as ++, and an activity that is 1/100 as +, and an activity below that as −.

mouse GPR174 = molecular target: T2, mouse GPR174 (Mus musculus, UniProt Q3U507); assay: TGFα shedding assay, agonistic activity on GPR174; set-up: key: an activity that is 100 folds that of control compound 1 as +++++; an activity that is 10 folds that of control compound 1 as ++++; the activity of the control compound 1 (LPS18:1) as +++; an activity that is 1/10 as ++; an activity that is 1/100 as +; an activity below that as −; settings: HEK293 cells transfected with mouse GPR174 and AP labeled TGFα; activity relative to control compound 1 (LPS18:1) = +++
T2 construct: expressed in transfected cells; host or cells: HEK293
T2 sequence (Q3U507 whole entry): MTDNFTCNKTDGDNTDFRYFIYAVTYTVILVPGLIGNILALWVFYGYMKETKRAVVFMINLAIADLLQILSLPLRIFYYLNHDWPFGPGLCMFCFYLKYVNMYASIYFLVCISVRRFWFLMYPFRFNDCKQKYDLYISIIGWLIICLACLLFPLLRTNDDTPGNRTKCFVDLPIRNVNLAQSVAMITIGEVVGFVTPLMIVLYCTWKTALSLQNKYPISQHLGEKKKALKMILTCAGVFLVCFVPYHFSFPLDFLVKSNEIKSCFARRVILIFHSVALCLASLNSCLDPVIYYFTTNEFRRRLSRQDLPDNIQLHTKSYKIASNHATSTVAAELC
Method: as §1, §2, §3, §4

mouse GPR34 = molecular target: T3, mouse GPR34 (Mus musculus, UniProt Q9R1K6); assay: TGFα shedding assay, agonistic activity on GPR34; set-up: key to GPR34/LPS2 agonistic activity, TGFα shedding assay: an activity that is 100 folds that of control compound 1 as +++++; an activity that is 10 folds that of control compound 1 as ++++; the activity of the control compound 1 (LPS18:1) as +++; an activity that is 1/10 as ++; an activity that is 1/100 as +; an activity below that as −; settings: for GPR34/LPS2 agonistic activity, TGFα shedding assay: HEK293 cells transfected with mouse GPR34 and AP labeled TGFα, activity relative to control compound 1 (LPS18:1) = +++
T3 construct: expressed in transfected cells; host or cells: HEK293
T3 sequence (Q9R1K6 whole entry): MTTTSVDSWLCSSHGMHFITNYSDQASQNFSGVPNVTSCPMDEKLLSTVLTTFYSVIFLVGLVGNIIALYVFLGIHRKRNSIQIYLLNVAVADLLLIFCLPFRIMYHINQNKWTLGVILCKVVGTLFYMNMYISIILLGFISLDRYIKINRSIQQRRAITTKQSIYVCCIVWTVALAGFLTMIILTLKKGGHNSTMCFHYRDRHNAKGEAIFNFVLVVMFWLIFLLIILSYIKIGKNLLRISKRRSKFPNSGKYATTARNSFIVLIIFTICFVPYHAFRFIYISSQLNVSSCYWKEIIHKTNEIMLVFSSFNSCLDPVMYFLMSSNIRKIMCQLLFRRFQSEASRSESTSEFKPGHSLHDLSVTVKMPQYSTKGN
Method: as §1, §2, §3, §4

| Structure (SMILES) | P2Y10/LPS2 agonistic activity, TGFα shedding assay (mouse P2Y10) | GPR174/LPS3 agonistic activity, TGFα shedding assay (mouse GPR174) | GPR34/LPS2 agonistic activity, TGFα shedding assay (mouse GPR34) | receptor selectivity of agonist activity among GPR34, P2Y10, GPR174 (graphs of FIG. 1) (mouse GPR34; TGFα shedding assay, HEK293 cells, AP activity (%) vs concentration) |
| --- | --- | --- | --- | --- |
| CCCCCCCC/C=C\CCCCCCCC(=O)OC[C@@H](C)OP(=O)(O)OC[C@H](N)C(=O)O [Example 1, (9Z)-Octadeca-9-enoic acid (2R)-2-[((2S)-2-amino-2-carboxy-ethoxy)-hydroxy-phosphoryloxy]-propyl ester] | ++ | +~++ | ++++ |  |
| CCCCCCCC/C=C\CCCCCCCC(=O)OC[C@H](C)OP(=O)(O)OC[C@H](N)C(=O)O [Example 2, (9Z)-Octadeca-9-enoic acid (2S)-2-[((2S)-2-amino-2-carboxy-ethoxy)-hydroxy-phosphoryloxy]-propyl ester] | ++~+++ | +~++ | +++ |  |
| C[C@H](COC(=O)CCc1ccccc1OCc1cccc(Oc2ccccc2)c1)OP(=O)(O)OC[C@H](N)C(=O)O [Example 3, (2S)-2-amino-3-[hydroxyl-((1R)-1-methyl-2-{3-[2-(3-phenoxy-benzyloxy)-phenyl]-propionyloxy}-ethoxy)-phosphoryloxy]-propionic acid] | ++ | − | +++++ | agonists having selectivity against GPR34 |
| CCCCCCCC/C=C\CCCCCCCC(=O)OC[C@@H](COC)OP(=O)(O)OC[C@H](N)C(=O)O [Example 4, (9Z)-Octadeca-9-enoic acid (2R)-2-[((2S)-2-amino-2-carboxy-ethoxy)-hydroxy-phosphoryloxy]-3-methoxy-propyl ester] | + | − | ++++ |  |
| CCCCCCCC/C=C\CCCCCCCC(=O)OC[C@H](COC)OP(=O)(O)OC[C@H](N)C(=O)O [Example 5, (9Z)-Octadeca-9-enoic acid (2S)-2-[((2S)-2-amino-2-carboxy-ethoxy)-hydroxy-phosphoryloxy]-3-methoxy-propyl ester] | + | − | ++ |  |
| CCCCCCCC/C=C\CCCCCCCC(=O)OC[C@@H](COCC)OP(=O)(O)OC[C@H](N)C(=O)O [Example 6, (9Z)-Octadeca-9-enoic acid (2R)-2-[((2S)-2-amino-2-carboxy-ethoxy)-hydroxy-phosphoryloxy]-3-ethoxypropyl ester] | + | − | +++++ |  |
| CCCCCCCC/C=C\CCCCCCCC(=O)OC[C@@H](COCc1ccccc1)OP(=O)(O)OC[C@H](N)C(=O)O [Example 7, (9Z)-Octadeca-9-enoic acid (2R)-2-[((2S)-2-amino-2-carboxy-ethoxy)-hydroxy-phosphoryloxy]-3-benzyloxy-propyl ester] | − | − | ++ |  |
| CCCCCCCCCCCOc1ccccc1CCC(=O)O[C@@H]1CCOC[C@H]1OP(=O)(O)OC[C@H](N)C(=O)O [Example 8, (2S)-2-amino-3-((3R,4R)-hydroxy-{4-[3-(2-undecyloxy-phenyl)-propionyloxy]-tetrahydro-pyran-3-yloxy}-phosphoryloxy)-propionic acid] | +++ | − | +++~++++ |  |
| CCCCCCCCCCCOc1ccccc1CCC(=O)O[C@@H]1COCC[C@H]1OP(=O)(O)OC[C@H](N)C(=O)O [Example 9, (2S)-2-amino-3-(hydroxyl-{(3R,4R)-3-[3-(2-undecyloxy-phenyl)-propionyloxy]-tetrahydropyran-4-yloxy}-phosphoryloxy)-propionic acid] | ++~+++ | − | ++++~+++++ |  |
| CCCCCCCCCCCOc1ccccc1CCC(=O)O[C@H]1CCOC[C@@H]1OP(=O)(O)OC[C@H](N)C(=O)O [Example 10, (2S)-2-amino-3-(hydroxy-{(3S,4S)-4-[3-(2-undecyloxy-phenyl)-propionyloxy]-tetrahydro-pyran-3-yloxy}-phosphoryloxy)-propionic acid] | ++~+++ | − | − |  |
| CCCCCCCCCCCOc1ccccc1CCC(=O)O[C@H]1COCC[C@@H]1OP(=O)(O)OC[C@H](N)C(=O)O [Example 11, (2S)-2-amino-3-(hydroxy-{(3S,4S)-3-[3-(2-undecyloxy-phenyl)-propionyloxy]-tetrahydro-pyran-4-yloxy}-phosphoryloxy)-propionic acid] | ++ | − | − |  |
| CCCCCCCCCCCOc1ccc(C(C)(C)C)cc1CCC(=O)O[C@H]1COCC[C@@H]1OP(=O)(O)OC[C@H](N)C(=O)O [Example 12, (2S)-2-amino-3-({(3S,4S)-3-[3-(5-tert-butyl-2-undecyloxy-phenyl)-propionyloxy]-tetrahydro-pyran-4-yloxy}-hydroxy-phosphoryloxy)-propionic acid] | + | − | − |  |
| N[C@@H](COP(=O)(O)OC[C@H]1OCCC[C@@H]1OC(=O)CCc1ccccc1OCc1cccc(Oc2ccccc2)c1)C(=O)O [Example 13, (2S)-2-amino-3-[hydroxyl-((2R,3S)-3-{3-[2-(3-phenoxy-benzyloxy)-phenyl]-propionyloxy}-tetrahydro-pyran-2-ylmethoxy)-phosphoryloxy]-propionic acid] | −~+ | − | ++ |  |
| CCCCCCCCCCCOc1ccccc1CCC(=O)O[C@H]1CCCO[C@@H]1COP(=O)(O)OC[C@H](N)C(=O)O [Example 14, (2S)-2-amino-3-(hydroxy-{(2R,3S)-3-[3-(2-undecyloxy-phenyl)-propionyloxy]-tetrahydro-pyran-2-ylmethoxy}-phosphoryloxy)-propionic acid] | + | − | − |  |
| CCCCCCCC/C=C\CCCCCCCC(=O)OC[C@H]1OCCC[C@H]1OP(=O)(O)OC[C@H](N)C(=O)O [Example 15, (9Z)-Octadeca-9-enoic acid (2R,3R)-3-[((2S)-2-amino-2-carboxy-ethoxy)-hydroxy-phosphoryloxy]-tetrahydropyran-2-ylmethyl ester] | − | − | ++ |  |
